Experimental data published in patent US20250312469A1 (CANGET BIOTEKPHARMA, priority 2024, published 2025).
Values joined by “and” are separate entries in the source; they are usually repeats but may differ in a detail not shown here. Equal entries are not always repeated.

Key:
[1] = molecular target: T1, bovine serum albumin (BSA) (Bos taurus, UniProt P02769); test: 3H-FL118 binding, Nanosep 3K centrifugal device; conditions: negative control protein
T1 construct: purchased EMD (Billerica, MA)
T1 sequence (P02769 25-607): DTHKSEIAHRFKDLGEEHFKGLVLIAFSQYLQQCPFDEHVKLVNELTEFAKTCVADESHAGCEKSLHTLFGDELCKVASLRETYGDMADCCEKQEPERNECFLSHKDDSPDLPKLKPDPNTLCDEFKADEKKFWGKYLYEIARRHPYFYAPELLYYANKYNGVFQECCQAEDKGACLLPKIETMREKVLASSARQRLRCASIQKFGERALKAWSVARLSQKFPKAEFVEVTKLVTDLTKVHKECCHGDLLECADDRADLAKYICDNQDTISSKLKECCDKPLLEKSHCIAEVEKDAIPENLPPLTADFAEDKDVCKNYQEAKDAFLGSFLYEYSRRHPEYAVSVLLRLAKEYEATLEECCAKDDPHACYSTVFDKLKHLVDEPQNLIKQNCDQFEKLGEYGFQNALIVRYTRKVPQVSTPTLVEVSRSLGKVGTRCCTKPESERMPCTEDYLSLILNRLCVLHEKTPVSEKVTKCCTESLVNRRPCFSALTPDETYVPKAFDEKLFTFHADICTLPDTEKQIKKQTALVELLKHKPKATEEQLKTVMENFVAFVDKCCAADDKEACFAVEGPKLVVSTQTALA
Experimental: Then, 5-10 μg of the FLAGR M Purification Kit (Signa)-purified Flag-USP2a and Flag-UbE2T proteins in a volume of 20-50 μL, respectively, was transferred into the sample reservoir of a 1.5 mL Nanosep 3K Centrifugal Device. In parallel, a negative control Nanosep 3K Centrifugal Devices containing 10 μg bovine serum albumin (BSA) in 50 μL volume was also set up. Then, the 3 prepared Nanosep 3K Devices were centrifuged at 10,000 rpm for 10-15 min to eliminate the solution and retain the proteins in the sample reservoir. […] Lastly, all three of the sample reservoir devices were transferred into a scintillation vial containing enough scintillation solution to cover the entire sample reservoir devices for tritium (3H) counting on the LS 6500 Scintillation System (Backman Couler™).

CRPC LAPC9 tumors = test: LAPC9 CRPC tumor model; assay type: in vivo, SCID mice; conditions: 8 mg/kg orally once per week, 2 times
WP2-uvrA = test: Ames Bacterial Reverse Mutation Assay; conditions: for Background Lawn Code / Colony Counts Average / Colony Counts Replicate 1-3: WP2-uvrA
CYP2B6 mRNA = test: CYP induction (mRNA) in fresh human hepatocytes
From the text: (§1) (2) CYP positive inducers (Table 58a) and Williams' Medium E (WME) were purchased from Sigma-Aldrich (St. Louis, MO, USA). Dulbecco's phosphate-buffered saline (DPBS, pH 7.4) was purchased from Invitrogen (Carlsbad, CA, USA). Hepatocyte culture medium (serum-free) for CYP induction was purchased from XenoTech (catalog #K2300, Lenexa, KS, USA). The CellTiter 96 AQueous ONE Solution Cell Proliferation Assay was obtained from Promega (Madison, WI, USA). All other chemicals and reagents were of analytical grade or higher. (3) Fresh human hepatocytes (Table 58b) seeded at ˜0.15 million cells/well in 48-well plates (˜0.75 million cells/mL) were purchased from Thermo Fisher Scientific (Grand Island, NY, USA) and BioreclamationIVT (Baltimore, MD, USA).
(§2) Vehicle controls were treated in parallel with hepatocyte culture medium. […] (2) After the CYP induction treatment, the cells were used for a cell viability assay. […] The absorbance of formazan, which is proportional to the number of viable cells, was measured spectrophotometrically using the CellTiter 96 AQueous ONE Solution Cell Proliferation Assay. […] (3) Total RNA was isolated from the treated cells using the RNeasy mini kit (Qiagen, Valencia, CA, USA) and treated with RNase-free DNase (Qiagen) following the manufacturer's protocols. The concentration of RNA was determined using a Qubit Fluorometer with a Qubit RNA HS assay kit (Invitrogen). cDNA was synthesized from up to 1 μg of the total RNA harvested from the cells using a QuantiTect RT kit (Qiagen). Analysis of gene expression by qPCR was performed using the LightCycler 480 System (Roche Diagnostics Corporation, Indianapolis, IN, USA).

CYP1A2 mRNA = test: CYP induction (mRNA) in fresh human hepatocytes
From the text: as §1, §2

Panc-1 and BxPC-3 cells = test: Cell attachment after FL118 pretreatment; assay type: cell-based, human; conditions: 24 h pretreatment, reseeded
Experimental: The harvested cells were then reseeded at an expected 30-60% confluence if all cell attached to the cell cultural dish. […] Representative cell attachment images were taken 4-16 hours dependent on control cell attachment speed after cell seeding. Quantitative analysis of non-attached cell numbers was documented in parallel for each condition.

[2] = PK after single i.v. dose in tumor bearing mice
Whole blood stability = assay type: in vitro ADME, human
Experimental: Both matrices were adjusted to pH 7.4 prior to initiating the experiments. A DMSO stock as first prepared for the test article. […] The vials were kept in a benchtop Thermomixer for the duration of the experiment. Aliquots (100 μL) were taken at each time point (0, 15, 30, 60, and 120 minutes) and added to 96-well plates which had been pre-filled with 300 μL of acetonitrile (ACN). Samples were stored at 4° C. until the end of the experiment. […] Analytical conditions are outlined in Appendix 1.

CCC1(O)C(=O)OCc2c1cc1n(c2=O)Cc2cc3cc4c(cc3nc2-1)OCO4 (centres unmarked) [FL118]
3H CPM counts in retained parts [1]: 4,230 ± 370 CPM
antitumor efficacy (CRPC LAPC9 tumors): sensitive to FL118
bacterial strain mutation (WP2-uvrA): does not induce
mean revertant colonies over negative control (WP2-uvrA; +/− S9): less than 2 fold
Background Lawn Code (WP2-uvrA; 0.010 μM +S9): 1
Colony Counts Average (WP2-uvrA; 0.010 μM +S9): 40
Colony Counts Replicate 1-3 (WP2-uvrA; 0.010 μM +S9): 38 and 47 and 34
Background Lawn Code (WP2-uvrA; 0.010 μM −S9): 1
Colony Counts Average (WP2-uvrA; 0.010 μM −S9): 29
Colony Counts Replicate 1-3 (WP2-uvrA; 0.010 μM −S9): 35 and 22 and 31
Background Lawn Code (WP2-uvrA; 0.10 μM +S9): 1
Colony Counts Average (WP2-uvrA; 0.10 μM +S9): 47
Colony Counts Replicate 1-3 (WP2-uvrA; 0.10 μM +S9): 48 and 38 and 54
Background Lawn Code (WP2-uvrA; 0.10 μM −S9): 1
Colony Counts Average (WP2-uvrA; 0.10 μM −S9): 30
Colony Counts Replicate 1-3 (WP2-uvrA; 0.10 μM −S9): 27 (2×) and 36
Background Lawn Code (WP2-uvrA; 1.0 μM +S9): 1
Colony Counts Average (WP2-uvrA; 1.0 μM +S9): 39
Colony Counts Replicate 1-3 (WP2-uvrA; 1.0 μM +S9): 35 and 38 and 43
Background Lawn Code (WP2-uvrA; 1.0 μM −S9): 1
Colony Counts Average (WP2-uvrA; 1.0 μM −S9): 27
Colony Counts Replicate 1-3 (WP2-uvrA; 1.0 μM −S9): 27 and 31 and 24
% of PB-treated Cells (CYP2B6 mRNA; Donor 1, 0.01 μM, negative values treated as zero): 0%
% of PB-treated Cells (CYP2B6 mRNA; Donor 1, 0.1 μM, negative values treated as zero): 0%
% of PB-treated Cells (CYP2B6 mRNA; Donor 1, 1 μM, negative values treated as zero): 0%
% of PB-treated Cells (CYP2B6 mRNA; Donor 3, 0.025 μM, negative values treated as zero): 0%
% of PB-treated Cells (CYP2B6 mRNA; Donor 3, 0.05 μM, negative values treated as zero): 0%
induction of CYP2B6 mRNA (CYP2B6 mRNA; donor 1, 0.01, 0.1, 1 μM): did not increase CYP2B6 mRNA
% of PB-treated Cells (CYP2B6 mRNA; donor 2, 0.001 μM): 0.70%
% of PB-treated Cells (CYP2B6 mRNA; donor 2, 0.005 μM): 0.43%
% of PB-treated Cells (CYP2B6 mRNA; donor 2, 0.01 μM): 0.11%
induction of CYP2B6 mRNA (CYP2B6 mRNA; donor 2, 0.001, 0.005, 0.01 μM): did not increase CYP2B6 mRNA
induction of CYP2B6 mRNA (CYP2B6 mRNA; donor 3, 0.025, 0.05 μM): did not increase CYP2B6 and CYP3A4 mRNA
% of OME-treated Cells (CYP1A2 mRNA; donor 1, 0.01 μM): 0.15%
induction of CYP1A2 mRNA (CYP1A2 mRNA; donor 1, 0.01 μM): < 2 fold
% of OME-treated Cells (CYP1A2 mRNA; donor 1, 0.1 μM): 1.1%
induction of CYP1A2 mRNA (CYP1A2 mRNA; donor 1, 0.1 μM): 2.0 fold
% of OME-treated Cells (CYP1A2 mRNA; donor 1, 1 μM): 2.6%
induction of CYP1A2 mRNA (CYP1A2 mRNA; donor 1, 1 μM): 3.4 fold
% of OME-treated Cells (CYP1A2 mRNA; donor 2, 0.001 μM): 0.88%
induction of CYP1A2 mRNA (CYP1A2 mRNA; donor 2, 0.001 μM): 2.3 fold
% of OME-treated Cells (CYP1A2 mRNA; donor 2, 0.005 μM): 1.0%
induction of CYP1A2 mRNA (CYP1A2 mRNA; donor 2, 0.005 μM): 2.5 fold
% of OME-treated Cells (CYP1A2 mRNA; donor 2, 0.01 μM): 2.6%
induction of CYP1A2 mRNA (CYP1A2 mRNA; donor 2, 0.01 μM): 4.9 fold
% of OME-treated Cells (CYP1A2 mRNA; donor 3, 0.025 μM): 1.6%
induction of CYP1A2 mRNA (CYP1A2 mRNA; donor 3, 0.025 μM): 2.0 fold
% of OME-treated Cells (CYP1A2 mRNA; donor 3, 0.05 μM): 1.6%
induction of CYP1A2 mRNA (CYP1A2 mRNA; donor 3, 0.05 μM): 2.1 fold
cell attachment (Panc-1 and BxPC-3 cells): exhibited cell attachment defect
Vz ([2]; FaDu tumor): 33052 g/kg
Vz ([2]; SW620 tumor): 30742 g/kg
half-life (Whole blood stability; 0.5 μM): long half-life
Percent Remaining (Whole blood stability; Human Whole Blood, 0 min): 100%
Percent Remaining (Whole blood stability; Human Whole Blood, 15 min): 108%
Percent Remaining (Whole blood stability; Human Whole Blood, 30 min): 68%
Percent Remaining (Whole blood stability; Human Whole Blood, 60 min): 61%
Percent Remaining (Whole blood stability; Human Whole Blood, 120 min): 35%
half-life at 0.5 μM (Whole blood stability; both sexes, whole blood (sodium heparin), pH 7.4, Human Whole Blood): 1.23 h
